According to US20240287079A1, “6-AMINOPYRAZOLOPYRIMIDINE COMPOUND AND PHARMACEUTICAL USE THEREOF” (Japan Tobacco Inc., priority 2021, published 2024):

These molecules were tested against NLRP3 inflammasome (Homo sapiens (Human), UniProt Q96P20) (assay: Evaluation of NLRP3 inflammasome inhibitory activity (inhibition of IL-1β production in LPS/Nigericin-stimulated THP1-Null cells)). Settings: IL-1β production in THP1-Null cells, PMA, LPS 1 μg/mL, Nigericin 7.5 μmol/L, AlphaLISA.
Chain of NLRP3 inflammasome (Q96P20 whole entry): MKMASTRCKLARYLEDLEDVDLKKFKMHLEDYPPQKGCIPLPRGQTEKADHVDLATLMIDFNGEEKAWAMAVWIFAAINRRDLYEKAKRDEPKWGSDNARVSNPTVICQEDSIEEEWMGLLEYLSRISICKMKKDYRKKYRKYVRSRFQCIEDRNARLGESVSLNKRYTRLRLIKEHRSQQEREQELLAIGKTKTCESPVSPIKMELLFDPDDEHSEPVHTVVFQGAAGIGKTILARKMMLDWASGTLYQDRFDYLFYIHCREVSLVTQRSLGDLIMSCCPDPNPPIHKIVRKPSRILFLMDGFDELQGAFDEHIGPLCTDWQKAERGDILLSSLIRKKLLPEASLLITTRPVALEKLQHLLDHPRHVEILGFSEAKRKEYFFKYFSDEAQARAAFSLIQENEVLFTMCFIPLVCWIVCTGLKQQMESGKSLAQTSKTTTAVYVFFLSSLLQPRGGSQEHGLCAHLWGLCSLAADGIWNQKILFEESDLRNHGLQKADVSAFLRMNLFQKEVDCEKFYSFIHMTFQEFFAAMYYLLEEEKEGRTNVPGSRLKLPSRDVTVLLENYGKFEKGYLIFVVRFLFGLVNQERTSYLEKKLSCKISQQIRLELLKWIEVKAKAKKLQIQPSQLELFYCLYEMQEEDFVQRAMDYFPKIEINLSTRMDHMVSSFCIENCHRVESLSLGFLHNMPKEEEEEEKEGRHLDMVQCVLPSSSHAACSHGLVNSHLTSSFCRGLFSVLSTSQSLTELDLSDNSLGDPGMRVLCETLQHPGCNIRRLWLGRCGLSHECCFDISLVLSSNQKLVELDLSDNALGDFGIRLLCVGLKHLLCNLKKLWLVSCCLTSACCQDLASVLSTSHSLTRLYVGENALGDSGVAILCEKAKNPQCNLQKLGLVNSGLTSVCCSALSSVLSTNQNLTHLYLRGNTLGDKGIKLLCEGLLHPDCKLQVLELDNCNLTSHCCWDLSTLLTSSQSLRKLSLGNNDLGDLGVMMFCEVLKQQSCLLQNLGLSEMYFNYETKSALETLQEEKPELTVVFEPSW
Type: cell-based
In short: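 THP1-Null cells primed with 1 μg/mL LPS, then treated with test compound; supernatant IL-1β quantified by AlphaLISA. Inhibition calculated with blank wells as 100% and control wells as 0%.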
In the case of Cc1cc(C2CC2)cc(C)c1-n1cc2c(=O)[nH]c(N3CCOC[C@H]3C)nc2n1 [Example 275], the IC50 is reported as 8.5 nM. Cc1cc(Br)cc(C)c1-n1cc2c(=O)[nH]c(N3CC4CC3CN4S(C)(=O)=O)nc2n1 (racemic) [Example 219] showed an IC50 of 19 nM. CCC(C)n1nc(C)c(-n2cc3c(=O)[nH]c(N4CCCC4)nc3n2)c1C (racemic) [Example 347] showed an IC50 of 920 nM. Cc1cc(Br)cc(Cl)c1-n1cc2c(=O)[nH]c(N3CC4CC(C3)O4)nc2n1 [Example 296] gave an IC50 of 14 nM. Cc1cc(C2CC2)cc(Cl)c1-n1cc2c(=O)[nH]c(N3C[C@H]4C[C@@H]3CO4)nc2n1 [Example 287] showed an IC50 of 9.6 nM. Molecule Cc1cc(Br)ccc1-n1cc2c(=O)[nH]c(N3CC4CC(C3)O4)nc2n1 [Example 169] has an IC50 of 17 nM. Cc1cc(CC(F)F)cc(C)c1-n1cc2c(=O)[nH]c(N3CCOCCO3)nc2n1 [Example 358] showed an IC50 of 800 nM. With Cc1cc(Br)cc(C)c1-n1cc2c(=O)[nH]c(NCC3CC3)nc2n1 [Example 228] the IC50 was 7.7 nM. Molecule O=c1[nH]c(N2CCCC2)nc2nn(-c3ccccc3C(F)(F)F)cc12 [Example 8] has an IC50 of 590 nM. For Cc1cc(Br)cc(C)c1-n1cc2c(=O)[nH]c(N(CCO)CCO)nc2n1 [Example 361], the IC50 was 13 nM. For CCCNc1nc2nn(-c3ccccc3C)cc2c(=O)[nH]1 [Example 19], the IC50 was 1400 nM. In the case of O=c1[nH]c(N2CCCC2)nc2nn(-c3ccccc3)cc12 [Example 2], the IC50 is reported as 8900 nM. CNc1nc2nn(-c3ccc(C)cc3C)cc2c(=O)n1C [Example 80] was tested, and the IC50 was 570 nM. Work on O=c1[nH]c(N2CCOCC2)nc2nn(-c3ccc(Br)cc3OC(F)(F)F)cc12 [Example 206] yielded an IC50 of 12 nM. Cc1ccc(-n2cc3c(=O)[nH]c(N4CCCC4)nc3n2)cc1 [Example 40] showed an IC50 of 770 nM. With Cc1cc(C)c(-n2cc3c(=O)[nH]c(N4CCC(C)C4)nc3n2)c(C)c1 (racemic) [Example 109] the IC50 was 64 nM. Molecule O=c1[nH]c(N2CCCC2)nc2nn(-c3c(Cl)cccc3Cl)cc12 [Example 30, 2-(2,6-dichlorophenyl)-6-(pyrrolidin-1-yl)-2,5-dihydro-4H-pyrazole[3,4-d]pyrimidin-4-one] has an IC50 of 1100 nM. For Cc1cc(C)c(-n2cc3c(=O)[nH]c(N4CCCC(CO)C4)nc3n2)c(C)c1 (racemic) [Example 116], the IC50 was 79 nM. Cc1cc(Br)cc(C)c1-n1cc2c(=O)[nH]c(N3CCN(C)CC3)nc2n1 [Example 246] gave an IC50 of 15 nM. With COc1cc(C)c(-n2cc3c(=O)[nH]c(N4CCCC4)nc3n2)c(C)c1 [Example 345] the IC50 was 16 nM. Cc1cc(C2CC2)cc(C)c1-n1cc2c(=O)[nH]c(N3CCOCC3)nc2n1 [Example 124] was tested, and the IC50 was 3 nM. With COCC(=O)N1CC2CC1CN2c1nc2nn(-c3c(C)cc(Br)cc3C)cc2c(=O)[nH]1 (racemic) [Example 220] the IC50 was 23 nM. For O=c1[nH]c(N2CCOCC2)nc2nn(-c3c(F)cc(C4CC4)cc3C(F)(F)F)cc12 [Example 273], the IC50 was 13 nM. In the case of CONc1nc2nn(-c3c(C)cc(C4CC4)cc3C)cc2c(=O)[nH]1 [Example 348], the IC50 is reported as 33 nM. Work on Cc1cc(C2CC2)ncc1-n1cc2c(=O)[nH]c(N3CCOCC3)nc2n1 [Example 202] yielded an IC50 of 640 nM. Molecule Cc1cccc(-n2cc3c(=O)[nH]c(N4CCCC4)nc3n2)c1 [Example 43] has an IC50 of 3400 nM. Cc1cc(Br)ccc1-n1cc2c(=O)n(C)c(N3CCOCC3)nc2n1 [Example 88, 2-(4-bromo-2-methylphenyl)-5-methyl-6-morpholino-2,5-dihydro-4H-pyrazolo[3,4-d]pyrimidin-4-one] was tested, and the IC50 was 39 nM. Cc1cc(C(F)(F)F)cc(C)c1-n1cc2c(=O)[nH]c(N3CC4CC(C3)O4)nc2n1 [Example 277] was tested, and the IC50 was 16 nM. Work on O=c1[nH]c(N2CC(CCO)C2)nc2nn(-c3ccc(C(F)(F)F)cc3Cl)cc12 [Example 180] yielded an IC50 of 35 nM. O=c1[nH]c(N2CCOCC2)nc2nn(-c3ncc(C(F)(F)F)cc3Br)cc12 [Example 201] gave an IC50 of 190 nM. Work on Cc1cc(Br)cc(Cl)c1-n1cc2c(=O)[nH]c(N3CCOCC3)nc2n1 [Example 146] yielded an IC50 of 9.2 nM. Cc1cc(Br)ccc1-n1cc2c(=O)[nH]c(N3CCN(S(C)(=O)=O)CC3)nc2n1 [Example 91] showed an IC50 of 6.7 nM. In the case of Cc1cc(Br)ccc1-n1cc2c(=O)n(C)c(N3CCN(S(C)(=O)=O)CC3)nc2n1 [Example 138], the IC50 is reported as 140 nM. With Cc1cc(Br)cc(C)c1-n1cc2c(=O)[nH]c(NC3CCCN(C)C3)nc2n1 (racemic) [Example 245] the IC50 was 8 nM. With COC1CCCN(c2nc3nn(-c4c(C)cc(C)cc4C)cc3c(=O)[nH]2)C1 (racemic) [Example 108] the IC50 was 200 nM. Cc1cc(C(F)(F)F)ncc1-n1cc2c(=O)[nH]c(N3CCOCC3)nc2n1 [Example 98, 2-(4-methyl-6-(trifluoromethyl)pyridin-3-yl)-6-morpholino-2,5-dihydro-4H-pyrazolo[3,4-d]pyrimidin-4-one] gave an IC50 of 54 nM. Molecule Cc1cc(C(F)F)cc(C)c1-n1cc2c(=O)[nH]c(N3C[C@H]4C[C@@H]3CO4)nc2n1 [Example 330] has an IC50 of 80 nM. Molecule Cc1cc(Br)ccc1-n1cc2c(=O)[nH]c(N3CC(F)(F)C3)nc2n1 [Example 76] has an IC50 of 4.8 nM. For Nc1cc(C(F)(F)F)cc(Cl)c1-n1cc2c(=O)[nH]c(N3CCOCC3)nc2n1 [Example 271], the IC50 was 20 nM. In the case of Cc1cc(C#N)ccc1-n1cc2c(=O)[nH]c(N3CCCC3)nc2n1 [Example 71], the IC50 is reported as 1200 nM. Cc1cc(C(F)(F)F)cc(C)c1-n1cc2c(=O)[nH]c(N3CCCC3)nc2n1 [Example 281] gave an IC50 of 13 nM. COCc1cc(Br)ccc1-n1cc2c(=O)[nH]c(N3CCOCC3)nc2n1 [Example 268] was tested, and the IC50 was 34 nM. Cc1nc(C(F)(F)F)ccc1-n1cc2c(=O)[nH]c(N3CCOCC3)nc2n1 [Example 121] showed an IC50 of 540 nM. Molecule Cc1ccccc1-n1cc2c(=O)[nH]c(Nc3ccccc3)nc2n1 [Example 24] has an IC50 of 2400 nM. Cn1c(N2CC3CC(C2)O3)nc2nn(-c3ccc(C4CC4)cc3C(F)(F)F)cc2c1=O [Example 313] was tested, and the IC50 was 240 nM. With CCOC1CCN(c2nc3nn(-c4ccc(C)cc4C)cc3c(=O)[nH]2)C1 (racemic) [Example 57] the IC50 was 150 nM. Cc1ccccc1-n1cc2c(=O)[nH]c(N3CCCCC3)nc2n1 [Example 15] showed an IC50 of 1500 nM. Cc1cc(Br)ccc1-n1cc2c(=O)n(CC#N)c(N3CCOCC3)nc2n1 [Example 172] showed an IC50 of 190 nM. In the case of Cc1cc(Br)cc(C)c1-n1cc2c(=O)n(C)c(N3CC4CC(C3)O4)nc2n1 [Example 310], the IC50 is reported as 450 nM. COC1CN(c2nc3nn(-c4ccccc4C)cc3c(=O)[nH]2)C1 [Example 33] was tested, and the IC50 was 2300 nM. COC[C@H]1CCN(c2nc3nn(-c4ccc(Br)cc4C)cc3c(=O)[nH]2)CCO1 [Example 193] showed an IC50 of 42 nM. CC(=O)NC1CCN(c2nc3nn(-c4c(C)cc(C)cc4C)cc3c(=O)[nH]2)C1 (racemic) [Example 111] was tested, and the IC50 was 56 nM. Cc1cc(C(F)(F)F)cc(C)c1-n1cc2c(=O)[nH]c(N3C[C@@H]4C[C@H]3CO4)nc2n1 [Example 250] showed an IC50 of 8.9 nM. Cc1cc(Cl)cc(C(=O)C2CC2)c1-n1cc2c(=O)[nH]c(N3CCOCC3)nc2n1 [Example 167] was tested, and the IC50 was 430 nM. Cc1cc(Br)cc(C)c1-n1cc2c(=O)[nH]c(N3C[C@H]4C[C@@H]3CO4)nc2n1 [Example 197] was tested, and the IC50 was 8 nM. For Cc1cc(C2(C(F)(F)F)CC2)cc(C)c1-n1cc2c(=O)[nH]c(N3CCOCC3)nc2n1 [Example 276], the IC50 was 220 nM. For O=c1[nH]c(N2CCOCC2)nc2nn(-c3ccc(Br)cc3C(F)F)cc12 [Example 243], the IC50 was 68 nM. Molecule CC(C)(C)OC(=O)N1CC2CN(c3nc4nn(-c5ccc(C(F)(F)F)cc5Cl)cc4c(=O)[nH]3)CC2C1 (stereo not drawn) [Example 179] has an IC50 of 27 nM. Cc1ccccc1-n1cc2c(=O)[nH]c(N(C)C)nc2n1 [Example 20] gave an IC50 of 6500 nM. In the case of Cc1cc(Cl)cc(C)c1-n1cc2c(=O)[nH]c(N3CCOCC3)nc2n1 [Example 166], the IC50 is reported as 16 nM. Work on O=c1[nH]c(N2CCOCC2)nc2nn(-c3ccc(C4CC4)cc3OC(F)(F)F)cc12 [Example 208] yielded an IC50 of 14 nM. Cc1cc(Br)cc(C)c1-n1cc2c(=O)[nH]c(N3CCCO3)nc2n1 [Example 308] showed an IC50 of 170 nM. For Cc1cc(Br)ccc1-n1cc2c(=O)[nH]c(N3CCNC(=O)C3)nc2n1 [Example 78], the IC50 was 28 nM. Cc1cc(Br)ccc1-n1cc2c(OCCO)nc(N3CCOCC3)nc2n1 [Example 153] gave an IC50 of 460 nM. For Cn1c(N2CC3CC(C2)O3)nc2nn(-c3ccc(Br)cc3C(F)(F)F)cc2c1=O [Example 311], the IC50 was 320 nM. For O=c1[nH]c(N2CCOCC2)nc2nn(-c3ccc(C(F)(F)F)cc3Cl)cc12 [Example 128], the IC50 was 28 nM. Molecule Cc1ccccc1-n1cc2c(=O)[nH]c(N3CCCC3)nc2n1 [Example 3, 6-(pyrrolidin-1-yl)-2-(o-tolyl)-2,5-dihydro-4H-pyrazolo[3,4-d]pyrimidin-4-one] has an IC50 of 530 nM. COCC(=O)N1CCN(c2nc3nn(-c4ccc(Br)cc4C)cc3c(=O)[nH]2)CC1 [Example 141] showed an IC50 of 9.6 nM. COCCOc1nc(N2CCOCC2)nc2nn(-c3ccc(Br)cc3C)cc12 [Example 154] gave an IC50 of 590 nM. Cc1nn(C2CCC2)c(C)c1-n1cc2c(=O)[nH]c(N3CCCC3)nc2n1 [Example 344] gave an IC50 of 650 nM. Work on Cc1cc(C)c(-n2cc3c(=O)[nH]c(N4CCC(CO)CC4)nc3n2)c(C)c1 [Example 115] yielded an IC50 of 35 nM. With Cc1cc(C)c(-n2cc3c(=O)[nH]c(N4CC5COCC5C4)nc3n2)c(C)c1 (stereo not drawn) [Example 117] the IC50 was 46 nM. Cc1ccc(-n2cc3c(=O)[nH]c(N4CCCC4)nc3n2)c(C)c1 [Example 45] showed an IC50 of 70 nM.

Same assay, conditions: IL-1β production in THP1-Null cells; test compound 2.4 μM
Work on Cc1nn(C)c(C)c1-n1cc2c(=O)[nH]c(N3CCCC3)nc2n1 [Example 342] yielded an inhibition at 2.4 µM of 45%.

Same assay, conditions: IL-1β production in THP1-Null cells; test compound 24 μM
N#Cc1ccccc1-n1cc2c(=O)[nH]c(N3CCCC3)nc2n1 [Example 29] gave an inhibition at 24 µM of 2%.
